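Cells were grown in 96-well plates and exposed to each compound for 48 hours at five concentrations; endpoints were interpolated linearly between bracketing concentrations, or set to the highest concentration if not reached. GI50 = concentration required for 50% inhibition of growth. At the TGI there is no net growth.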 Bounds are passed on as bounds.

Experimental findings from PubChem BioAssay (NCI) are described below.

Among the test systems are 786-0 renal; MDA-MB-435; NCI-H226 lung; NCI-H23 lung; OVCAR-5 ovarian; SR leukemia; T-47D breast; TK-10 renal.
Common to all, as to test: NCI tumour cell line growth inhibition, 48 h

`CC1Oc2cc3c(-c4c(O)cc(O)c5c(O)c6c(cc45)OC(C)C(C)C6=O)c(O)cc(O)c3c(O)c2C(=O)C1C` (stereo not drawn): the TGI turned out to be 1.21 µM in the assay with 786-0 renal; 1.16 µM in the assay with MDA-MB-435; 0.89 µM in the assay with NCI-H226 lung; 0.756 µM in the assay with NCI-H23 lung; 6.32 µM with OVCAR-5 ovarian; 0.429 µM in the assay with SR leukemia. Moreover, the TGI with T-47D breast is 1.41 µM; in the assay on TK-10 renal it was 5.45 µM.
Regarding `CCCN1C(=O)/C(=c2\sc3n(c2=O)C2C(NN=3)N(CC)C(=O)N2CC)c2ccccc21` (stereo not drawn), the GI50 was 0.89 µM with 786-0 renal; 0.196 µM with MDA-MB-435; 1.45 µM in the assay with NCI-H226 lung; 0.792 µM with NCI-H23 lung; 1.14 µM in the assay on OVCAR-5 ovarian; 0.422 µM in the assay with SR leukemia. For the same compound, the GI50 in the assay with T-47D breast is 0.438 µM; in the assay on TK-10 renal, 3.62 µM. Further, the TGI in the assay on 786-0 renal is 16.5 µM; with MDA-MB-435 it was 0.445 µM; in the assay on NCI-H226 lung, > 33 µM; in the assay on NCI-H23 lung it was 15.8 µM; with OVCAR-5 ovarian, 24.1 µM; in the assay with SR leukemia, 21.9 µM. The TGI is > 88.7 µM in the assay with T-47D breast and 22.3 µM in the assay on TK-10 renal.
Take `OCC1OC(n2ccc3c2ncn2ncnc32)C(O)C1O` (stereo not drawn): the GI50 was 2.47 µM in the assay on 786-0 renal; 6.5 µM with MDA-MB-435; 1.59 µM in the assay with NCI-H226 lung; 1.4 µM with NCI-H23 lung; 1.19 µM in the assay with OVCAR-5 ovarian; 2.96 µM with SR leukemia. Also, the results for the GI50 in the assay on T-47D breast and in the assay on TK-10 renal were 0.273 µM and 3.81 µM, respectively. In addition, the TGI in the assay with 786-0 renal was > 100 µM; in the assay on MDA-MB-435 it was > 100 µM; with NCI-H226 lung, > 100 µM; in the assay on NCI-H23 lung, > 100 µM; in the assay with OVCAR-5 ovarian, > 100 µM; in the assay on SR leukemia it was > 68.8 µM. The results for the TGI in the assay on T-47D breast and with TK-10 renal were 5.54 µM and > 100 µM, respectively.
With `C[C@]12CC[C@H]3[C@@H](CCC4=CC(=O)CC[C@@H]43)[C@@H]1CC[C@@H]2OC(=O)N(CCCl)N=O`, the GI50 with 786-0 renal was 0.0723 µM; in the assay on MDA-MB-435, 3.54 µM; with NCI-H226 lung it was 14 µM; in the assay on NCI-H23 lung, 5.1 µM; with OVCAR-5 ovarian, 20.8 µM; in the assay with SR leukemia, < 0.0381 µM. For the same compound, the GI50 with T-47D breast is 3.52 µM; with TK-10 renal it was 11.1 µM. Moreover, the TGI with 786-0 renal was 4.82 µM; with MDA-MB-435, 32.5 µM; with NCI-H226 lung, 34.1 µM; in the assay on NCI-H23 lung, 33.7 µM; with OVCAR-5 ovarian it was 49.9 µM; with T-47D breast, 29.3 µM. In the assay on TK-10 renal, the TGI came to 43.8 µM.
Turning to `O=S(=O)(c1ccc(NC(=S)NCc2cccnc2)cc1)N1CCCCC1`, the GI50 in the assay with 786-0 renal is > 100 µM; in the assay on MDA-MB-435 it was 3.04 µM; in the assay on NCI-H226 lung, 39.5 µM; with NCI-H23 lung it was 28.6 µM; in the assay with OVCAR-5 ovarian, 5.46 µM; in the assay on SR leukemia it was 36.8 µM. Also, the GI50 with T-47D breast was 7.33 µM; in the assay on TK-10 renal, 47.5 µM. Further, the TGI in the assay on 786-0 renal, with MDA-MB-435, in the assay on NCI-H226 lung, in the assay on NCI-H23 lung, with OVCAR-5 ovarian and with SR leukemia was > 100 µM throughout. Further, the TGI in the assay on T-47D breast and in the assay on TK-10 renal was > 100 µM each time.
For the compound `CC1=CC(=O)c2c(O)cccc2C1=O`, the TGI in the assay with 786-0 renal came out at 3.01 µM; in the assay with MDA-MB-435, 3.26 µM; in the assay with NCI-H226 lung, 24.6 µM; with NCI-H23 lung, 3.47 µM; in the assay on OVCAR-5 ovarian it was 3.78 µM; in the assay with SR leukemia, 4.95 µM. The TGI in the assay on T-47D breast is 2.22 µM; in the assay on TK-10 renal it was 3.14 µM.
Turning to `Cn1c(=O)c2[nH]c(/N=N/N3CCN(CCO)CC3)nc2n(C)c1=O`, the TGI in the assay on 786-0 renal, in the assay on MDA-MB-435, with NCI-H226 lung, with NCI-H23 lung, with OVCAR-5 ovarian and in the assay on SR leukemia was > 100 µM each time. The TGI in the assay on T-47D breast and in the assay on TK-10 renal was > 100 µM in each case.
Take `c1ccc2[nH]c(-c3ccc(N4CCN(c5ccc(-c6nc7ccccc7[nH]6)cc5)CC4)cc3)nc2c1`: the GI50 with 786-0 renal is 36.9 µM; in the assay on MDA-MB-435 it was > 100 µM; in the assay with NCI-H226 lung, 24.2 µM; in the assay on NCI-H23 lung, > 100 µM; with OVCAR-5 ovarian, 52 µM; in the assay on SR leukemia, 3.08 µM. Moreover, the GI50 in the assay on T-47D breast was 30.4 µM; in the assay on TK-10 renal it was 37.9 µM. Further, the TGI is > 100 µM with 786-0 renal; > 100 µM with MDA-MB-435; > 100 µM in the assay on NCI-H226 lung; > 100 µM in the assay with NCI-H23 lung; > 100 µM in the assay on OVCAR-5 ovarian; 6.85 µM in the assay with SR leukemia. The TGI with T-47D breast and in the assay with TK-10 renal was > 100 µM each time.
In the case of `Fc1ccc2[nH]cc(Cc3c[nH]c4ccc(F)cc34)c2c1`, the GI50 was 17.1 µM with 786-0 renal; 7.46 µM in the assay on MDA-MB-435; 31.3 µM in the assay with NCI-H226 lung; 22.2 µM in the assay with NCI-H23 lung; 17.5 µM in the assay with OVCAR-5 ovarian; 31.1 µM with SR leukemia. Moreover, the GI50 with T-47D breast is 20 µM; with TK-10 renal, 28.9 µM. The TGI was 35.6 µM in the assay on 786-0 renal; 24.9 µM in the assay on MDA-MB-435; 92.3 µM with NCI-H226 lung; 53.5 µM in the assay with NCI-H23 lung; 38 µM in the assay on OVCAR-5 ovarian; > 100 µM in the assay on SR leukemia. The TGI is 96.9 µM in the assay with T-47D breast and 68.6 µM in the assay with TK-10 renal.
`C=C(C)[C@@H]1CC[C@]2(C(=O)NCCCN)CC[C@]3(C)[C@H](CC[C@@H]4[C@@]5(C)CC[C@H](O)C(C)(C)[C@@H]5CC[C@]43C)[C@@H]12`: the GI50 is 23.2 µM with 786-0 renal; 28.7 µM with MDA-MB-435; 21.2 µM in the assay with NCI-H226 lung; 22.6 µM with NCI-H23 lung; 14.8 µM with OVCAR-5 ovarian; 9.05 µM in the assay with SR leukemia. Moreover, the GI50 with T-47D breast is 13.1 µM; in the assay with TK-10 renal it was 23.9 µM. Moreover, the TGI with 786-0 renal is 63.4 µM; in the assay on MDA-MB-435, > 100 µM; with NCI-H226 lung it was > 100 µM; with NCI-H23 lung it was 87.1 µM; in the assay on OVCAR-5 ovarian, 31.3 µM; in the assay with SR leukemia it was > 100 µM. The TGI was found to be 53.2 µM in the assay on T-47D breast and 60.4 µM in the assay on TK-10 renal.
Consider `Nc1ncnc2c1ccn2C1OC2COP(=O)(O)OC2C1O` (stereo not drawn), for which the TGI in the assay with 786-0 renal is > 20.9 µM; in the assay on MDA-MB-435, 2.31 µM; with NCI-H226 lung, 28.5 µM; in the assay with NCI-H23 lung, 9.37 µM; in the assay on OVCAR-5 ovarian, 46.9 µM; in the assay on SR leukemia, 25.6 µM. Moreover, the TGI in the assay with T-47D breast was determined as 55.3 µM; in the assay with TK-10 renal, 4.8 µM.
